Each structure is given as a SMILES string. Values joined by “and” are separate entries in the source; they are usually repeats but may differ in a detail not shown here. Equal values may be shown once.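 Method: 48-hour compound exposure of cells in 96-well plates, five concentrations, linear interpolation of endpoints. GI50: concentration for 50% inhibition of growth. The concentration for full growth arrest is given as TGI.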

Among the test systems are HL-60(TB) leukemia; A498 renal; SF-295 CNS; PC-3 prostate; OVCAR-8 ovarian; SW-620 colon; DU-145 prostate; UACC-62 melanoma; CAKI-1 renal; SK-OV-3 ovarian.
Assay in all cases: growth of human tumour cells (NCI), 48 h

As to `C[C@@H]1COCCN1c1cc(-c2ccnn2C)c2ccnc(-c3ccn[nH]3)c2n1`, the GI50 in the experiment with HL-60(TB) leukemia was 106 nM and 194 nM; with A498 renal it was 21.2 nM and 37.3 nM; with SF-295 CNS it was 57 nM and 110 nM; in the experiment on PC-3 prostate, 275 nM and 454 nM; in the experiment with OVCAR-8 ovarian, 170 nM and 415 nM; in the experiment with SW-620 colon it was 259 nM and 603 nM. The GI50 with DU-145 prostate is 99.2 nM and 202 nM; in the experiment with UACC-62 melanoma, 125 nM and 163 nM; with CAKI-1 renal, 125 nM and 223 nM; in the experiment with SK-OV-3 ovarian, 92.8 nM and 215 nM. The TGI in the experiment with HL-60(TB) leukemia is 660 nM and 3160 nM; in the experiment on A498 renal, 83.8 nM and 226 nM; with SF-295 CNS, 648 nM and 1150 nM; with PC-3 prostate, more than 100000 nM; in the experiment with SW-620 colon it was more than 100000 nM; in the experiment on DU-145 prostate, more than 100000 nM. In addition, the TGI in the experiment with UACC-62 melanoma was 876 nM and 1300 nM; with CAKI-1 renal, 900 nM and 1800 nM; in the experiment with SK-OV-3 ovarian, 732 nM and 2060 nM.
Turning to `Brc1cccc(-c2cc(-c3ccc4nccnc4c3)[nH]n2)c1`, the GI50 in the experiment on HL-60(TB) leukemia was 519 nM; with A498 renal, 418 nM; in the experiment with SF-295 CNS, 1110 nM; with PC-3 prostate, 680 nM; in the experiment on OVCAR-8 ovarian, 1390 nM; in the experiment on SW-620 colon, 273 nM. In addition, the GI50 is 1090 nM in the experiment on DU-145 prostate, 1350 nM in the experiment with UACC-62 melanoma, 599 nM in the experiment on CAKI-1 renal and 845 nM in the experiment with SK-OV-3 ovarian. Besides, the TGI was 1750 nM in the experiment with HL-60(TB) leukemia; 1860 nM with A498 renal; more than 250000 nM in the experiment on SF-295 CNS; more than 250000 nM in the experiment on PC-3 prostate; more than 250000 nM in the experiment with OVCAR-8 ovarian; more than 250000 nM in the experiment on SW-620 colon. The TGI in the experiment with DU-145 prostate was more than 200000 nM; in the experiment with UACC-62 melanoma it was more than 250000 nM; with CAKI-1 renal, more than 250000 nM; in the experiment on SK-OV-3 ovarian, more than 250000 nM.
For `OCc1ccc(N2CCCC2)cc1Cl`, the GI50 was 13700 nM in the experiment with HL-60(TB) leukemia; 147 nM with A498 renal; 1780 nM in the experiment on SF-295 CNS; more than 84700 nM with PC-3 prostate; 46000 nM with OVCAR-8 ovarian; 10700 nM in the experiment on SW-620 colon. Besides, the GI50 in the experiment on DU-145 prostate is 34400 nM; in the experiment with UACC-62 melanoma, 879 nM; in the experiment on CAKI-1 renal, 14300 nM; in the experiment with SK-OV-3 ovarian, 27300 nM. Further, the TGI with HL-60(TB) leukemia is more than 75600 nM; in the experiment with A498 renal, 289 nM; with SF-295 CNS it was 37400 nM; in the experiment with PC-3 prostate, more than 100000 nM; in the experiment with OVCAR-8 ovarian, more than 100000 nM; with SW-620 colon, more than 100000 nM. The TGI with DU-145 prostate is more than 100000 nM; in the experiment with UACC-62 melanoma, 4280 nM; with CAKI-1 renal it was 50300 nM; with SK-OV-3 ovarian, more than 90600 nM.
Regarding `O=C(Nc1ccccc1Cl)c1cccc(NC2=C(Cl)C(=O)N(Cc3ccccc3)C2=O)c1`, the GI50 in the experiment with HL-60(TB) leukemia was 1400 nM; with A498 renal, 24600 nM; in the experiment on SF-295 CNS it was 23300 nM; with PC-3 prostate, 18900 nM; in the experiment with OVCAR-8 ovarian it was 20800 nM; with SW-620 colon, 26100 nM. The GI50 was 28500 nM with DU-145 prostate, 7360 nM with UACC-62 melanoma, 23200 nM in the experiment with CAKI-1 renal and more than 100000 nM with SK-OV-3 ovarian. The TGI in the experiment on HL-60(TB) leukemia was 20800 nM; in the experiment with A498 renal it was 89900 nM; in the experiment with SF-295 CNS, 92300 nM; with PC-3 prostate it was 99000 nM; in the experiment with OVCAR-8 ovarian it was more than 100000 nM; with SW-620 colon, more than 100000 nM. Moreover, the TGI with DU-145 prostate was more than 100000 nM; in the experiment with UACC-62 melanoma, 51000 nM; in the experiment with CAKI-1 renal it was 66900 nM; in the experiment on SK-OV-3 ovarian it was more than 100000 nM.
For the compound `COc1ccc2c(c1)/C(=C\c1c[nH]c3ccc(OC)cc13)C(=O)N2`, the GI50 with HL-60(TB) leukemia is 2970 nM; with A498 renal, 1820 nM; in the experiment with SF-295 CNS it was 3670 nM; with PC-3 prostate it was 3840 nM; with SW-620 colon, 2770 nM; in the experiment on DU-145 prostate, 4720 nM. Moreover, the GI50 is 2760 nM in the experiment on UACC-62 melanoma, 2130 nM in the experiment with CAKI-1 renal and 2580 nM with SK-OV-3 ovarian. Moreover, the TGI in the experiment on HL-60(TB) leukemia amounted to 6070 nM; in the experiment with A498 renal, 6470 nM; with SF-295 CNS it was 16800 nM; with PC-3 prostate, 16300 nM; in the experiment with SW-620 colon it was 11000 nM; in the experiment with DU-145 prostate, 16400 nM. Also, the TGI in the experiment on UACC-62 melanoma is 11300 nM; in the experiment with CAKI-1 renal, 13300 nM; in the experiment with SK-OV-3 ovarian, 8640 nM.
Consider `COc1cccc(CC(C)=C(c2ccc(OCCCN(C)C)cc2)c2ccc(OCCCN(C)C)cc2)c1`, for which the GI50 in the experiment on HL-60(TB) leukemia is 506 nM; with A498 renal, 3190 nM; in the experiment on SF-295 CNS, 658 nM; in the experiment on PC-3 prostate, 693 nM; with OVCAR-8 ovarian, 645 nM; in the experiment on SW-620 colon, 434 nM. Also, the GI50 with DU-145 prostate is 694 nM; in the experiment with UACC-62 melanoma, 457 nM; in the experiment with CAKI-1 renal, 683 nM; in the experiment with SK-OV-3 ovarian it was 4040 nM. For the same compound, the TGI with HL-60(TB) leukemia was found to be 1020 nM; in the experiment on A498 renal it was 6370 nM; in the experiment on SF-295 CNS, 1870 nM; with PC-3 prostate, 2460 nM; in the experiment with OVCAR-8 ovarian it was 1800 nM; with SW-620 colon, 867 nM. The TGI is 1820 nM in the experiment with DU-145 prostate, 835 nM with UACC-62 melanoma, 1950 nM in the experiment with CAKI-1 renal and 7570 nM with SK-OV-3 ovarian.
As to `Cc1c2ccncc2c(C)c2c1c1cc(CO)ccc1n2C`, the GI50 in the experiment on HL-60(TB) leukemia was 854 nM; in the experiment on A498 renal, 20 nM; in the experiment with SF-295 CNS, 383 nM; in the experiment with PC-3 prostate it was 294 nM; in the experiment with OVCAR-8 ovarian it was 449 nM; with SW-620 colon, 297 nM. Also, the figures for the GI50 with DU-145 prostate, with UACC-62 melanoma and in the experiment with SK-OV-3 ovarian were 653 nM, 287 nM and 784 nM, respectively. The TGI was determined as 5600 nM in the experiment with HL-60(TB) leukemia; 53.1 nM in the experiment with A498 renal; 2500 nM with SF-295 CNS; 1390 nM in the experiment on PC-3 prostate; 10100 nM in the experiment with OVCAR-8 ovarian; 10900 nM with SW-620 colon. Also, the TGI stood at 6020 nM with DU-145 prostate, 1760 nM in the experiment on UACC-62 melanoma and 3710 nM in the experiment with SK-OV-3 ovarian.
As for `CC(=O)O.CC(=O)O.CC(=O)O.CC(=O)O.[Rh].[Rh]`, the GI50 in the experiment on HL-60(TB) leukemia was 23700 nM; with A498 renal, 18800 nM; with PC-3 prostate, 27100 nM; in the experiment with OVCAR-8 ovarian, 27600 nM; in the experiment on SW-620 colon, 22000 nM; with DU-145 prostate, 47900 nM. Also, the GI50 in the experiment on UACC-62 melanoma is 24300 nM; in the experiment on CAKI-1 renal, 12200 nM; in the experiment with SK-OV-3 ovarian it was more than 100000 nM. Besides, the TGI in the experiment on HL-60(TB) leukemia is 50900 nM; in the experiment on A498 renal, 37200 nM; in the experiment on PC-3 prostate it was 91000 nM; with OVCAR-8 ovarian, more than 100000 nM; with SW-620 colon, more than 100000 nM; in the experiment on DU-145 prostate it was more than 100000 nM. For the same compound, the TGI in the experiment with UACC-62 melanoma was 56500 nM; in the experiment with CAKI-1 renal, 30700 nM; with SK-OV-3 ovarian it was more than 100000 nM.

Values taken from PubChem BioAssay (NCI).
